Measurements: PubChem BioAssay AID1259408 (Genetic Toxicology Data Bank (GENE-TOX), 2018)
Calls of active or inactive are those of the source. No rule for the calls is given here.

System: GENE-TOX genotoxicity assays, various organisms and cells
Assay: GENE-TOX mutagenicity studies
Conditions: for call: Assay Type: In vivo carcinogenicity studies
[1] = Species/Cell Type: Escherichia coli polA (W3119 vs P3478), Assay Type: Rec-assay, DNA effects (bacterial DNA repair), Assay Code: RE1-, Evaluation Type: Evaluation A (Pre-1980)
[2] = Species/Cell Type: Saccharomyces cerevisiae, Assay Type: Mitotic recombination or gene conversion, Assay Code: YEH-, Evaluation Type: Evaluation A (Pre-1980)
[3] = Species/Cell Type: Salmonella typhimurium (one or more of the five standard strains: TA98, TA100, TA1535, TA1537, and TA1538), Assay Type: Histidine reverse gene mutation, Ames assay, Assay Code: SAL-, Evaluation Type: Evaluation A (Pre-1980)
[4] = Species/Cell Type: Salmonella typhimurium, Assay Type: Forward and reverse gene mutation, host-mediated assay, Assay Code: HMA-, Evaluation Type: Evaluation A (Pre-1980)
[5] = Species/Cell Type: Syrian hamster embryo (SHE) cells, Assay Type: Cell transformation, clonal assay, Assay Code: CTC+, Evaluation Type: Evaluation A (Pre-1980)
[6] = Species/Cell Type: Bacillus subtilis (H17 vs M45), Assay Type: Rec-assay, spot test, DNA effects (bacterial DNA repair), Assay Code: REW+, Evaluation Type: Evaluation A (Pre-1980)
[7] = Species/Cell Type: Human diploid fibroblasts, Assay Type: Unscheduled DNA synthesis (UDS) in vitro, DNA effects, Assay Code: UDH-, Evaluation Type: Evaluation A (Pre-1980)
[8] = Species/Cell Type: Chinese hamster lung (V79) cells, Assay Type: Forward gene mutation at the HPRT or ouabain locus, Assay Code: V79-, Evaluation Type: Evaluation A (Pre-1980)
[9] = Species/Cell Type: Nonhuman, Assay Code: CCGT, Evaluation Type: Evaluation A (Pre-1980)
[10] = Species/Cell Type: Salmonella typhimurium (one or more of the five standard strains: TA98, TA100, TA1535, TA1537, and TA1538), Assay Type: Histidine reverse gene mutation, Ames assay, Assay Code: SAL+, Evaluation Type: Evaluation A (Pre-1980)
[11] = Species/Cell Type: Chinese hamster lung (V79) cells, Assay Type: Forward gene mutation at the HPRT or ouabain locus, Assay Code: V79+, Evaluation Type: Evaluation A (Pre-1980)
[12] = Species/Cell Type: Escherichia coli polA (W3119 vs P3478), Assay Type: Rec-assay, DNA effects (bacterial DNA repair), Assay Code: RE1+, Evaluation Type: Evaluation A (Pre-1980)

O=C1CCC(=O)O1
mutagenic call (Species/Cell Type: Escherichia coli polA (W3110 vs P3478), Assay Type: Rec-assay, DNA effects (bacterial DNA repair), Assay Code: RE2-, Evaluation Type: Evaluation A (Pre-1980)): inactive; negative | mutagenic call [1]: inactive; negative | mutagenic call (Species/Cell Type: Mouse lymphoma (L5178Y) cells, Assay Type: Forward gene mutation at the thymidine kinase (TK) locus, chromosome aberrations, Assay Code: L51-, Evaluation Type: Evaluation A (Pre-1980)): inactive; negative | call (Species/Cell Type: Nonhuman, Assay Code: CCG+L, Evaluation Type: Evaluation A (Pre-1980)): active; positive | mutagenic call [2]: inactive; negative | mutagenic call [3]: inactive; negative | mutagenic call [4]: inactive; negative | mutagenic call [5]: active; positive

Cc1cc(N(C)CCCl)ccc1N=Nc1ccccc1C(=O)O
mutagenic call (Species/Cell Type: Drosophila melanogaster, Assay Type: Sex-linked recessive lethal gene mutation, Assay Code: SRLT, Evaluation Type: Evaluation A (Pre-1980)): no conclusion

O=[N+]([O-])c1ccc(Nc2ccc(N=C=S)cc2)cc1
mutagenic call (Species/Cell Type: Salmonella typhimurium, Assay Type: Forward and reverse gene mutation, body fluid assay, Assay Code: BFU+, Evaluation Type: Evaluation A (Pre-1980)): active; positive

C(=C\c1ccccc1)/c1ccccc1
mutagenic call [3]: inactive; negative

CC(=O)OCCN(CCOC(C)=O)N=O
mutagenic call (Species/Cell Type: Mammalian polychromatic erythrocytes, Assay Type: Micronucleus test, chromosome aberrations, Assay Code: MNTT, Evaluation Type: Evaluation B (Post-1980)): no conclusion

CC(=O)CCCCn1c(=O)c2c(ncn2C)n(C)c1=O
mutagenic call (Species/Cell Type: Human, Sex: Male, Assay Type: Sperm morphology, Assay Code: SPHT, Evaluation Type: Evaluation A (Pre-1980)): no conclusion

CN(C)C(=O)Nc1cccc(C(F)(F)F)c1
mutagenic call (Species/Cell Type: Saccharomyces cerevisiae, Assay Type: Mitotic recombination or gene conversion, Assay Code: YEC-, Evaluation Type: Evaluation A (Pre-1980)): inactive; negative

COc1cc(/C=N/NC(=O)COc2ccc(Br)cc2CN2CCCCC2)ccc1O
mutagenic call (Species/Cell Type: Saccharomyces cerevisiae, Assay Type: Reverse gene mutation, Assay Code: YERT, Evaluation Type: Evaluation A (Pre-1980)): no conclusion

CN(CC(=O)O)N=O
call (Species/Cell Type: Nonhuman, Assay Code: CCG+, Evaluation Type: Evaluation A (Pre-1980)): active; positive | mutagenic call [4]: inactive; negative

Cc1ccc([N+](=O)[O-])c(O)c1
mutagenic call (Species/Cell Type: Allium cepa, Assay Type: Chromosome aberrations, Assay Code: ALC+, Evaluation Type: Evaluation A (Pre-1980)): active; positive

CCC(Br)(CC)C(=O)NC(N)=O
call (Species/Cell Type: Nonhuman, Assay Code: CCG-, Evaluation Type: Evaluation A (Pre-1980)): inactive; negative

CCC(=O)Nc1ccc(Cl)c(Cl)c1
mutagenic call (Species/Cell Type: Aspergillus nidulans, Assay Type: Forward gene mutation, Assay Code: ASF-, Evaluation Type: Evaluation A (Pre-1980)): inactive; negative | mutagenic call [6]: active; positive | mutagenic call [1]: inactive; negative | mutagenic call [7]: inactive; negative | mutagenic call [2]: inactive; negative | mutagenic call [3]: inactive; negative

C1=C[C@H]2O[C@H]2c2c1cc1ccc3cccc4ccc2c1c34
mutagenic call [8]: inactive; negative | call [9]: no conclusion | mutagenic call [10]: active; positive

O[C@@H]1[C@H]2O[C@H]2c2cc3ccc4ccccc4c3cc2[C@H]1O
mutagenic call [11]: active; positive

Cc1ccc2cc3c4c(ccc3c3c2c1CC3)C=C[C@H](O)[C@H]4O
mutagenic call [11]: active; positive | call [9]: no conclusion | mutagenic call (Species/Cell Type: Salmonella typhimurium (one or more of the five standard strains: TA98, TA100, TA1535, TA1537, and TA1538), Assay Type: Histidine reverse gene mutation, Ames assay, Assay Code: SAL+*, Activation: With metabolic activation, Evaluation Type: Evaluation A (Pre-1980)): active; positive

CCNC(=O)[C@@H]1CCCN1C(=O)[C@H](CCCN=C(N)N)NC(=O)[C@H](CC(C)C)NC(=O)[C@@H](Cc1c[nH]c2ccccc12)NC(=O)[C@H](Cc1ccc(O)cc1)NC(=O)[C@H](CO)NC(=O)[C@H](Cc1c[nH]c2ccccc12)NC(=O)[C@H](Cc1cnc[nH]1)NC(=O)[C@@H]1CCC(=O)N1
mutagenic call (Species/Cell Type: Human, Sex: Male, Assay Type: Sperm morphology, Assay Code: SPH+, Evaluation Type: Evaluation A (Pre-1980)): active; positive

O=C(O)C1CCCCN1 (stereo not drawn)
mutagenic call [4]: inactive; negative

CC1=NN(c2ccc([N+](=O)[O-])cc2)C(=O)C1[N+](=O)[O-] (stereo not drawn)
mutagenic call [12]: active; positive | mutagenic call [10]: active; positive

NC(=O)NO
mutagenic call [8]: inactive; negative | mutagenic call [12]: active; positive | mutagenic call (Species/Cell Type: Human lymphocytes or leukocytes, Assay Type: Chromosome aberrations in vitro, Assay Code: CY7+, Evaluation Type: Evaluation A (Pre-1980)): active; positive | mutagenic call (Species/Cell Type: Mammalian polychromatic erythrocytes, Assay Type: Micronucleus test, chromosome aberrations, Assay Code: MNTT, Evaluation Type: Evaluation A (Pre-1980)): no conclusion | mutagenic call (Species/Cell Type: Mouse (BALB/c-3T3) cells, Assay Type: Cell transformation, Assay Code: CTB-, Evaluation Type: Evaluation A (Pre-1980)): inactive; negative | mutagenic call (Species/Cell Type: Mouse, Sex: Male, Assay Type: Sperm morphology, Assay Code: SPI+, Evaluation Type: Evaluation A (Pre-1980)): active; positive | call [9]: no conclusion | mutagenic call (Species/Cell Type: Nonhuman, Assay Type: Sister-chromatid exchange (SCE) in vitro, Assay Code: SC2+D, Dose Response: With dose response, Evaluation Type: Evaluation B (Post-1980)): active; positive | mutagenic call (Species/Cell Type: Nonhuman, Assay Type: Sister-chromatid exchange (SCE) in vitro, Assay Code: SC2-, Evaluation Type: Evaluation A (Pre-1980)): inactive; negative | mutagenic call (Species/Cell Type: Saccharomyces cerevisiae, Assay Type: Mitotic recombination or gene conversion, Assay Code: YEC+, Evaluation Type: Evaluation A (Pre-1980)): active; positive | mutagenic call (Species/Cell Type: Syrian hamster embryo (SA7/SHE) cells, Assay Type: Cell transformation, viral enhanced, Assay Code: CT7+, Evaluation Type: Evaluation A (Pre-1980)): active; positive | mutagenic call (Species/Cell Type: Tradescantia species, Assay Type: Chromosome aberrations, Assay Code: TRC+, Evaluation Type: Evaluation A (Pre-1980)): active; positive

COc1cc2c(c3oc(=O)c4c(c13)CCC4=O)[C@H]1[C@@H](O2)O[C@@H](Cl)[C@@H]1Cl
mutagenic call [10]: active; positive

O=C1Nc2ccc([N+](=O)[O-])cc2C1=O
mutagenic call [10]: active; positive

O=[As](O)(O)O
mutagenic call [6]: active; positive | mutagenic call (Species/Cell Type: Human lymphocytes, Assay Type: Sister-chromatid exchange (SCE) in vitro, Assay Code: SCL+, Evaluation Type: Evaluation B (Post-1980)): active; positive | mutagenic call (Species/Cell Type: Human, Assay Type: Sister-chromatid exchange (SCE) in vitro, Assay Code: SC1+, Evaluation Type: Evaluation B (Post-1980)): active; positive | mutagenic call (Species/Cell Type: Nonhuman, Assay Type: Sister-chromatid exchange (SCE) in vitro, Assay Code: SC2+, Evaluation Type: Evaluation B (Post-1980)): active; positive | mutagenic call [5]: active; positive

CNC(=O)Oc1cccc2c1OC(C)(C)C2
mutagenic call (Species/Cell Type: Bacillus subtilis (H17 vs M45), Assay Type: Rec-assay, spot test, DNA effects (bacterial DNA repair), Assay Code: REWT, Evaluation Type: Evaluation A (Pre-1980)): no conclusion | mutagenic call (Species/Cell Type: Drosophila melanogaster, Assay Type: Sex-linked recessive lethal gene mutation, Assay Code: SRL-, Evaluation Type: Evaluation A (Pre-1980)): inactive; negative | mutagenic call (Species/Cell Type: Escherichia coli WP2 UVRA, Assay Type: Tryptophan reverse gene mutation, Assay Code: WPU-*, Activation: With metabolic activation, Evaluation Type: Evaluation A (Pre-1980)): inactive; negative | mutagenic call (Species/Cell Type: Escherichia coli polA (W3119 vs P3478), Assay Type: Rec-assay, DNA effects (bacterial DNA repair), Assay Code: RE1T, Evaluation Type: Evaluation A (Pre-1980)): no conclusion | mutagenic call (Species/Cell Type: Hordeum vulgare (barley), Assay Type: Chromosome aberrations, Assay Code: HOC+D, Dose Response: With dose response, Evaluation Type: Evaluation A (Pre-1980)): active; positive | mutagenic call [7]: inactive; negative | mutagenic call [2]: inactive; negative | mutagenic call [3]: inactive; negative

CC(=O)OC[C@H]1OC(OC(C)=O)[C@H](NC(=O)N(C)N=O)[C@@H](OC(C)=O)[C@@H]1OC(C)=O (stereo partly drawn)
mutagenic call [11]: active; positive

Nc1ccc2nc3ccccn3c2n1
mutagenic call (Species/Cell Type: Human lymphocytes, Assay Type: Sister-chromatid exchange (SCE) in vitro, Assay Code: SCL+D, Dose Response: With dose response, Evaluation Type: Evaluation B (Post-1980)): active; positive | mutagenic call (Species/Cell Type: Human, Assay Type: Sister-chromatid exchange (SCE) in vitro, Assay Code: SC1+D, Dose Response: With dose response, Evaluation Type: Evaluation B (Post-1980)): active; positive

Cc1cc(C)cc(O)c1
mutagenic call (Species/Cell Type: Allium cepa, Assay Type: Chromosome aberrations, Assay Code: ALCT, Evaluation Type: Evaluation A (Pre-1980)): no conclusion

Cn1c(=O)c2c(n(C)c1=O)n(C)c(=O)n2C
mutagenic call (Species/Cell Type: Allium cepa, Assay Type: Chromosome aberrations, Assay Code: ALC+D, Dose Response: With dose response, Evaluation Type: Evaluation A (Pre-1980)): active; positive
